In PMC11345841, “Exploring 2-Sulfonylpyrimidine Warheads as Acrylamide Surrogates for Targeted Covalent Inhibition: A BTK Story” (Journal of Medicinal Chemistry, 2024):
Read-outs that look alike come from different tables or passages of the source.

Legend:
Assay in all cases: KINOMEscan ScanTK
Assay type in all cases: binding
[1] = molecular target: T1, ABL1(Q252H)-nonphosphorylated (Homo sapiens, UniProt P00519, Q252H)
T1 construct: purchased Eurofins DiscoverX KINOMEscan (scanTK)

[2] = molecular target: T2, ALK (Homo sapiens, UniProt Q9UM73)
T2 construct: purchased Eurofins DiscoverX KINOMEscan (scanTK)
T2 sequence (Q9UM73 19-1620): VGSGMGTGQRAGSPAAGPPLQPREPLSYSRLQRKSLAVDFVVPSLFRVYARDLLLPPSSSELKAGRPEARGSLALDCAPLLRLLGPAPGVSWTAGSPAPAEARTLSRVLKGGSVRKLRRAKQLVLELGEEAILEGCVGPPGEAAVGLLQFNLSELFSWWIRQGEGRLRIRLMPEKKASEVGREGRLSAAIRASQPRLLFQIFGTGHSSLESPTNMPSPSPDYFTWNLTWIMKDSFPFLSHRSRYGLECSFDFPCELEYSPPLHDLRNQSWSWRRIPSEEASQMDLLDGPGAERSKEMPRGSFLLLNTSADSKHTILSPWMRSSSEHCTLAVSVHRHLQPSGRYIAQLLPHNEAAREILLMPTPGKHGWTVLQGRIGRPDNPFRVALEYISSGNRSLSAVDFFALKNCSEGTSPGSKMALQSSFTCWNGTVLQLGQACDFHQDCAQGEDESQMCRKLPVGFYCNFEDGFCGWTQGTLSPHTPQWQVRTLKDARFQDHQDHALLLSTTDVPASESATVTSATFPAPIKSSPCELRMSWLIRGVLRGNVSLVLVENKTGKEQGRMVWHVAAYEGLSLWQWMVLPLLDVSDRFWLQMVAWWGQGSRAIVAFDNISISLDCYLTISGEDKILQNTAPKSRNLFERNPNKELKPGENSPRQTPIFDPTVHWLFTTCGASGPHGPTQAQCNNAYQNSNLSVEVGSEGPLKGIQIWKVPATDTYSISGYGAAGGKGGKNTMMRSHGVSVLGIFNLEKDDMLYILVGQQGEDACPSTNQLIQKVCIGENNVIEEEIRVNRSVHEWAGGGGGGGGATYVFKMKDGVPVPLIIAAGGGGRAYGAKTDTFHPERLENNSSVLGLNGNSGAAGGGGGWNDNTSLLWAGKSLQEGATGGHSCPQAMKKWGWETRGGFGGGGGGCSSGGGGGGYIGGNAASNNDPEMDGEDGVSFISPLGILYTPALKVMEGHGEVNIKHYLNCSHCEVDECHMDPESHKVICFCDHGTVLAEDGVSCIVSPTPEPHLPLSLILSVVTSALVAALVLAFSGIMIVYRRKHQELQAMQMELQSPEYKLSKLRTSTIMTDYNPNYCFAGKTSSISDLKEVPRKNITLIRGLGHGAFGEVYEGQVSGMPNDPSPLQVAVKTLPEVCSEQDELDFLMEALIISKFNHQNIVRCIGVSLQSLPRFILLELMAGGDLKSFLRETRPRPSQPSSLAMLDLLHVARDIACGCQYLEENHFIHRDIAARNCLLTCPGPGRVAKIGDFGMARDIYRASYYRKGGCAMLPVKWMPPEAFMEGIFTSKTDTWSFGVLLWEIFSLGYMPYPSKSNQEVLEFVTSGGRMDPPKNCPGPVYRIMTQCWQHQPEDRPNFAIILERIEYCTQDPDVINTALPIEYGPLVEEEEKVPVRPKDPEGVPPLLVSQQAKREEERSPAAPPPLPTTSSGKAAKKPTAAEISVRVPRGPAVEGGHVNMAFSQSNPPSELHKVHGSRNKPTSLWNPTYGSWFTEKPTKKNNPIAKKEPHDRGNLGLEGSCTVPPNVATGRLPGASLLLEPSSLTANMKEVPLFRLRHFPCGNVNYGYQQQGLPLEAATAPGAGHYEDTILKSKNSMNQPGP

[3] = molecular target: T3, BLK (Homo sapiens, UniProt P51451); conditions: for remaining binding at 1 µM: BLK
T3 construct: purchased Eurofins DiscoverX KINOMEscan (scanTK)
T3 sequence (P51451 whole entry): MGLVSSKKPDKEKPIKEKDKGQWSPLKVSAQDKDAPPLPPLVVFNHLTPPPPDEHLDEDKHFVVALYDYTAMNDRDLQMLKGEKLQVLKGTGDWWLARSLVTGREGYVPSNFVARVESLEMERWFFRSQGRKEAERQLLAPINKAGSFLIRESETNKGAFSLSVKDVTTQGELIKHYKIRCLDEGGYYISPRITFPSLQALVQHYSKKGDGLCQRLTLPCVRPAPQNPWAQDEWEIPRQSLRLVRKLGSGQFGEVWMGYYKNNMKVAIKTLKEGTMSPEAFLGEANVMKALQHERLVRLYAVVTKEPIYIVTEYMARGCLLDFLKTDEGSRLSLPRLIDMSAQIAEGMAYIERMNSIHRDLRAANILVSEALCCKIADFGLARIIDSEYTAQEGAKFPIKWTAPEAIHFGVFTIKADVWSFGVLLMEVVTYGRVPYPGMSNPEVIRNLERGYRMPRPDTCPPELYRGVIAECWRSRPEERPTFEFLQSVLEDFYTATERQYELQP

[4] = molecular target: T4, CSF1R-autoinhibited (Homo sapiens, UniProt P07333)
T4 construct: purchased Eurofins DiscoverX KINOMEscan (scanTK)
T4 sequence (P07333 539-972 limits assumed): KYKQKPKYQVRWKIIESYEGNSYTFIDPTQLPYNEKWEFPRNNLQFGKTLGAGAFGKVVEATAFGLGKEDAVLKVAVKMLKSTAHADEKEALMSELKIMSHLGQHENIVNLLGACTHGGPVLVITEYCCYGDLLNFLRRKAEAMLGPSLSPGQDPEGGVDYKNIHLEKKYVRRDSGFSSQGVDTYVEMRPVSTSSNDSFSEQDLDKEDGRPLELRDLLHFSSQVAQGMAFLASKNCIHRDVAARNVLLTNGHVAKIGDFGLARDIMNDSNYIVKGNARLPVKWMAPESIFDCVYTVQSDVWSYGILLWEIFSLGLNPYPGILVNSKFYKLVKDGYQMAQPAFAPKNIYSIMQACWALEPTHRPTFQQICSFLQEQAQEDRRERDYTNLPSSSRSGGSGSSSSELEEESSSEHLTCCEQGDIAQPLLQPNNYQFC

[5] = molecular target: T5, CSK (Homo sapiens, UniProt P41240)
T5 construct: purchased Eurofins DiscoverX KINOMEscan (scanTK)
T5 sequence (P41240 whole entry): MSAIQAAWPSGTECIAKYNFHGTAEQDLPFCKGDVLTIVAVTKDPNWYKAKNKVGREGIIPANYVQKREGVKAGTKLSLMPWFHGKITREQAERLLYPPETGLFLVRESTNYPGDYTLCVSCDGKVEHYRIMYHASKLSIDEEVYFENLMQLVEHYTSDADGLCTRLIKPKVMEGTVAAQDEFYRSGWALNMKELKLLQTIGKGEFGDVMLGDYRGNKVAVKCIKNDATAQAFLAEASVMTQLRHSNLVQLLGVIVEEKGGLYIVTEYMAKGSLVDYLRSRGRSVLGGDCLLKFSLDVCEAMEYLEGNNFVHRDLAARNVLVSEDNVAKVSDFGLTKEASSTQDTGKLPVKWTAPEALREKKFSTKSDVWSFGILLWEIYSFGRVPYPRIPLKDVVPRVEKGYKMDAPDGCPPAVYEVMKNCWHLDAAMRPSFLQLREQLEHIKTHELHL

[6] = molecular target: T6, JAK1(JH1domain-catalytic) (Homo sapiens, UniProt P23458)
T6 construct: JAK1(JH1domain-catalytic); purchased Eurofins DiscoverX KINOMEscan (scanTK)
T6 sequence (P23458 875-1154 limits assumed): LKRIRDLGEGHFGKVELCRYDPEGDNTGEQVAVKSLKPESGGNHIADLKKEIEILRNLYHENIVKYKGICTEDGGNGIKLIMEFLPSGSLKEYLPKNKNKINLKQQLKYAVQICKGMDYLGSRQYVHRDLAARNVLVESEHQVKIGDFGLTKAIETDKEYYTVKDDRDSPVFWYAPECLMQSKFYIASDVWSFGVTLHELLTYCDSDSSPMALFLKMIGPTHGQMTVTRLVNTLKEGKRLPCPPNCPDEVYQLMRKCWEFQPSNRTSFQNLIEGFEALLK

[7] = molecular target: T7, KIT-autoinhibited (Homo sapiens, UniProt P10721)
T7 construct: purchased Eurofins DiscoverX KINOMEscan (scanTK)

[8] = molecular target: T8, LYN (Homo sapiens, UniProt P07948)
T8 construct: purchased Eurofins DiscoverX KINOMEscan (scanTK)

[9] = molecular target: T9, MET(M1250T) (Homo sapiens, UniProt P08581, M1250T)
T9 construct: purchased Eurofins DiscoverX KINOMEscan (scanTK)
T9 sequence (P08581 25-1390 M1250T): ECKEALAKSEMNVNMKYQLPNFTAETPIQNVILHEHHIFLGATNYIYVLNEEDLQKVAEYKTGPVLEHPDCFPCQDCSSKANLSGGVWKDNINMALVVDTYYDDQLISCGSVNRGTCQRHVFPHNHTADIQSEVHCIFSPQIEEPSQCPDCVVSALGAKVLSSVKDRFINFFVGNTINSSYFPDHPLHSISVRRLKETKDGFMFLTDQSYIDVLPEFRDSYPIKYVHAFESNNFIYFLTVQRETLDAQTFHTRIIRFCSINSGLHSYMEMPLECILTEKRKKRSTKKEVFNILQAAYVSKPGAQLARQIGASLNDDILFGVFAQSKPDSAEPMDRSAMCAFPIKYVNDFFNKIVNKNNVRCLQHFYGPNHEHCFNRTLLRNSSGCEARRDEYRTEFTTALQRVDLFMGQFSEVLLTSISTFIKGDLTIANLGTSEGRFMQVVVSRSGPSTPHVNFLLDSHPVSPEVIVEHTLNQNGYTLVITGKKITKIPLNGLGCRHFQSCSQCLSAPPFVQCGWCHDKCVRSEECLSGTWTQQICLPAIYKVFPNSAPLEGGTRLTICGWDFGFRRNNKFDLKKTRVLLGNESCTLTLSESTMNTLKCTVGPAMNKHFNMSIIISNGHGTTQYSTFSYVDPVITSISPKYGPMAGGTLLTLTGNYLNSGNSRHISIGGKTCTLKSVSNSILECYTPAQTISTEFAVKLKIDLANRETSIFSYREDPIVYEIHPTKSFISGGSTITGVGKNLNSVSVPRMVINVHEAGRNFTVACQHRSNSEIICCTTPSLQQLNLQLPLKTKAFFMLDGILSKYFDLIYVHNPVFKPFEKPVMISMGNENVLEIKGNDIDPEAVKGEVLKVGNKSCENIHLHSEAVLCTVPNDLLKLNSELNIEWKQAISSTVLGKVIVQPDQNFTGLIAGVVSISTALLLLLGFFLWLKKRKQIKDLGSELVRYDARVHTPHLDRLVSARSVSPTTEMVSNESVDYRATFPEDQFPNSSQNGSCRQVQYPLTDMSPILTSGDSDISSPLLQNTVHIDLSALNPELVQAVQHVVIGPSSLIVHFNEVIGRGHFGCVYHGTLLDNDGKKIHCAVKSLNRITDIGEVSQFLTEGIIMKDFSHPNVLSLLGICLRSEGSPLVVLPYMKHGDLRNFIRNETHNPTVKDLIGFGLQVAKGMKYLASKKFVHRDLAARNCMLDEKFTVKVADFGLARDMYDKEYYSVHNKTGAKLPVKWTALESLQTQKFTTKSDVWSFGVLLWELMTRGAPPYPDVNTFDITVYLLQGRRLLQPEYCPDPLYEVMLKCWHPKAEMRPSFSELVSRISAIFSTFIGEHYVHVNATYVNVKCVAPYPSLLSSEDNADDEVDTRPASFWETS

[10] = molecular target: T10, PYK2 (Homo sapiens, UniProt Q14289)
T10 construct: purchased Eurofins DiscoverX KINOMEscan (scanTK)

[11] = molecular target: T11, RET(M918T) (Homo sapiens, UniProt P07949, M918T)
T11 construct: purchased Eurofins DiscoverX KINOMEscan (scanTK)

[12] = molecular target: T12, ROS1 (Homo sapiens, UniProt P08922)
T12 construct: purchased Eurofins DiscoverX KINOMEscan (scanTK)

[13] = molecular target: T13, TRKA (Homo sapiens, UniProt P04629)
T13 construct: purchased Eurofins DiscoverX KINOMEscan (scanTK)
T13 sequence (P04629 33-796): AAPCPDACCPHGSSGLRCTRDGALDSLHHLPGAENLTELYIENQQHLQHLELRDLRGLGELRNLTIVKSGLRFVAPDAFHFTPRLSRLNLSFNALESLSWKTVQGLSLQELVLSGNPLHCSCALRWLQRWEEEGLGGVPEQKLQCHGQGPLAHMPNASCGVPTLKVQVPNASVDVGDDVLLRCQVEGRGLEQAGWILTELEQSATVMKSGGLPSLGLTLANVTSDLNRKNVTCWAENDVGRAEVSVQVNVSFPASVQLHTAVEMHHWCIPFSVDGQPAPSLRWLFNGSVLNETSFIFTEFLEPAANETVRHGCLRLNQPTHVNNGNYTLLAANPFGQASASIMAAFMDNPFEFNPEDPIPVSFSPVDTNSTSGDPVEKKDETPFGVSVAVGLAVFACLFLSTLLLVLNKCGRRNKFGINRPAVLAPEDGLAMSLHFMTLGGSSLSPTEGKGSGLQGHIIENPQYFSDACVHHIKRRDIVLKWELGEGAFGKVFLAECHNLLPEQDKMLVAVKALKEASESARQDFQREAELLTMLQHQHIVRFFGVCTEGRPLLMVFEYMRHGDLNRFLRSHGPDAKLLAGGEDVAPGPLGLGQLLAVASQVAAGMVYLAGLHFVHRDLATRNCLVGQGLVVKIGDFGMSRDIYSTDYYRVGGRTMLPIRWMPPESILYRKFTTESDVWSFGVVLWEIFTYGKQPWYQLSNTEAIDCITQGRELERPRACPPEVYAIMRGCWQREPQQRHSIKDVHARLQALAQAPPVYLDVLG

C=CC(=O)N1CCC[C@@H](n2nc(-c3ccc(Oc4ccccc4)cc3)c3c(N)ncnc32)C1 [Compound 1g, Ibrutinib, reference compound]
remaining binding at 1 µM ([1]; @1000nM, read-out: %Control): 13%
remaining binding at 1 µM ([1]; read-out: %Control @1000nM): 13%
remaining binding at 1 µM ([2]; @1000nM, read-out: %Control): 94%
remaining binding at 1 µM ([2]; read-out: %Control @1000nM): 94%
remaining binding at 1 µM ([3]; @1000nM, read-out: %Control): 0.05%
remaining binding at 1 µM ([3]; read-out: %Control @1000nM): 0.05%
inhibition at 1 µM ([3]; ScanTK, 1 μM): > 99%
remaining binding at 1 µM ([4]; @1000nM, read-out: %Control): 77%
remaining binding at 1 µM ([4]; read-out: %Control @1000nM): 77%
remaining binding at 1 µM ([5]; @1000nM, read-out: %Control): 4.5%
remaining binding at 1 µM ([5]; read-out: %Control @1000nM): 4.5%
remaining binding at 1 µM ([6]; @1000nM, read-out: %Control): 94%
remaining binding at 1 µM ([6]; read-out: %Control @1000nM): 94%
remaining binding at 1 µM ([7]; @1000nM, read-out: %Control): 88%
remaining binding at 1 µM ([7]; read-out: %Control @1000nM): 88%
remaining binding at 1 µM ([8]; @1000nM, read-out: %Control): 16%
remaining binding at 1 µM ([8]; read-out: %Control @1000nM): 16%
remaining binding at 1 µM ([9]; @1000nM, read-out: %Control): 96%
remaining binding at 1 µM ([9]; read-out: %Control @1000nM): 96%
remaining binding at 1 µM ([10]; @1000nM, read-out: %Control): 100%
remaining binding at 1 µM ([10]; read-out: %Control @1000nM): 100%
remaining binding at 1 µM ([11]; @1000nM, read-out: %Control): 14%
remaining binding at 1 µM ([11]; read-out: %Control @1000nM): 14%
remaining binding at 1 µM ([12]; @1000nM, read-out: %Control): 97%
remaining binding at 1 µM ([12]; read-out: %Control @1000nM): 97%
remaining binding at 1 µM ([13]; read-out: %Control): 85%
remaining binding at 1 µM ([13]; read-out: %Control @1000nM): 85%
